# Measurements reported in ChEMBL document CHEMBL4038290, “Structure activity relationship and optimization of N-(3-(2-aminothiazol-4-yl)aryl)benzenesulfonamides as anti-cancer compounds against sensitive and resistant cells” (Bioorg Med Chem Lett, 2017).
# The source made the active and inactive calls. No cut-off for these calls is given here.
# How the values were obtained:
# A-375 [1] = assay: Antiproliferative activity against human A375 cells assessed as cell viability at 10 uM after 48 hrs by trypan blue exclusion assay; assay type: functional; details: A-375, 48 h, read-out: Activity
# A-375 [2] = assay: Antiproliferative activity against human A375 cells assessed as cell viability at 5 uM after 48 hrs by trypan blue exclusion assay; assay type: functional; details: A-375, 48 h, read-out: Activity
# A-375 [3] = assay: Antiproliferative activity against human A375 cells assessed as cell viability at 1 uM after 48 hrs by trypan blue exclusion assay; assay type: functional; details: for viability at 1 µM: A-375, 48 h, read-out: Activity
# A-375 [4] = assay: Antiproliferative activity against human A375 cells after 48 hrs by trypan blue exclusion assay; assay type: functional, cell-based; details: A-375, 48 h
# [5] = target: T1, Eukaryotic translation initiation factor 2-alpha kinase 3 (Homo sapiens) (UniProt Q9NZJ5); assay: Activation of PERK in human A375 cells at 2.5 to 10 uM after 12 hrs by Western blot analysis; assay type: cell-based
# T1 sequence (whole entry): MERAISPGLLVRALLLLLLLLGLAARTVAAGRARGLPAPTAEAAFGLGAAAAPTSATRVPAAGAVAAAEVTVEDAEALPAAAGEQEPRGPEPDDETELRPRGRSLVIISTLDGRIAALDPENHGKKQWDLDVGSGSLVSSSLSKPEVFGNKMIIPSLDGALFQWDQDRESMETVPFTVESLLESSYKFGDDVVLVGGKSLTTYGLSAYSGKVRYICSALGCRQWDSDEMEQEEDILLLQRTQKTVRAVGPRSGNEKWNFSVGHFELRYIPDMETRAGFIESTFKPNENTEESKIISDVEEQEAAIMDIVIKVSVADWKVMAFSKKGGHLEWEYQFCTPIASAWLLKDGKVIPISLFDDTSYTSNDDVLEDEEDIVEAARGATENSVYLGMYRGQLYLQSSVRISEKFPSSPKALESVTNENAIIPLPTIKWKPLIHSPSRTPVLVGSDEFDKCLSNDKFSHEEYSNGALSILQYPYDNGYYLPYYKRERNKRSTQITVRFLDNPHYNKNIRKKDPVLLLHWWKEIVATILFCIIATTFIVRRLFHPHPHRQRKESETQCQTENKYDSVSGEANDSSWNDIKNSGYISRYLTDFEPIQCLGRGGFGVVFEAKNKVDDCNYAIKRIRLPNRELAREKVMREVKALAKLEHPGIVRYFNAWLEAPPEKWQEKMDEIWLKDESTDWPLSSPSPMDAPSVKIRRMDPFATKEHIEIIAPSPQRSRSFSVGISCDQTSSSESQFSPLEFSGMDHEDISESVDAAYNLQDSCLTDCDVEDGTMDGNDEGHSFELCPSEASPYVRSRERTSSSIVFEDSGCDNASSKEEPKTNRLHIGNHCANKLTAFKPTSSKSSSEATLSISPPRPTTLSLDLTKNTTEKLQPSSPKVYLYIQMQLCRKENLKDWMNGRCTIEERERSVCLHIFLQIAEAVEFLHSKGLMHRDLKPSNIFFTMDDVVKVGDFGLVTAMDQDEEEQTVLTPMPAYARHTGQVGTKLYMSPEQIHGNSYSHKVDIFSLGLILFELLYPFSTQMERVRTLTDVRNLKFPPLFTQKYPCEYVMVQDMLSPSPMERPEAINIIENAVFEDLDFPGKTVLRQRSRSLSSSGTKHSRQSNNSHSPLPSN
# BXPC-3 = assay: Growth inhibition of human BxPC3 cells assessed as cell viability at 10 uM after 48 hrs by trypan blue exclusion assay; assay type: functional; details: BXPC-3, 48 h, read-out: Activity
# MIA PaCa-2 = assay: Growth inhibition of gemcitabine-resistant human MIAPaCa2 cells assessed as cell viability at 10 uM after 48 hrs by trypan blue exclusion assay relative to control; assay type: functional; details: MIA PaCa-2, 48 h, read-out: Activity
# [6] = Growth inhibition of human A375 RIV cells assessed as cell viability at 10 uM after 48 hrs by trypan blue exclusion assay; assay type: functional; details: A-375, 48 h, read-out: Activity
# [7] = Growth inhibition of human A375 R5C3 cells assessed as cell viability at 10 uM after 48 hrs by trypan blue exclusion assay; assay type: functional; details: A-375, 48 h, read-out: Activity
# K562 = assay: Growth inhibition of human K562 cells assessed as cell viability at 10 uM after 48 hrs by trypan blue exclusion assay; assay type: functional; details: K562, 48 h, read-out: Activity
# K-562R = assay: Growth inhibition of human K562R cells assessed as cell viability at 10 uM after 48 hrs by trypan blue exclusion assay; assay type: functional; details: read-out: Activity
# [8] = target: T1, Eukaryotic translation initiation factor 2-alpha kinase 3 (Homo sapiens); assay: Activation of PERK in human A375 cells assessed as increase in CHOP expression at 2.5 to 10 uM after 12 hrs by Western blot analysis; assay type: cell-based
# A-375 [9] = assay: Induction of apoptosis in human A375 cells assessed as cleavage of PARP protein at 2.5 to 10 uM after 12 hrs by Western blot analysis; assay type: functional, cell-based
# A-375 [10] = assay: Induction of autophagy in human A375 cells assessed as increase in conversion of LC3-I to LC3-II at 2.5 to 10 uM after 12 hrs by Western blot analysis; assay type: functional, cell-based
# A-375 [11] = assay: Induction of autophagy in human A375 cells assessed as increase in conversion of LC3-I to LC3-II at 1 to 5 uM after 24 hrs by Western blot analysis; assay type: functional, cell-based
# [12] = target: T1, Eukaryotic translation initiation factor 2-alpha kinase 3 (Homo sapiens); assay: Activation of PERK in human A375 cells at 1 to 2.5 uM after 48 hrs by Western blot analysis; assay type: cell-based
# [13] = target: T1, Eukaryotic translation initiation factor 2-alpha kinase 3 (Homo sapiens); assay: Activation of PERK in human A375 cells assessed as increase in CHOP expression at 1 to 2.5 uM after 48 hrs by Western blot analysis; assay type: cell-based
# A-375 [14] = assay: Induction of autophagy in human A375 cells assessed as increase in conversion of LC3-I to LC3-II at 1 to 2.5 uM after 48 hrs by Western blot analysis; assay type: functional, cell-based
SMILES,viability at 10 µM (A-375 [1]),viability at 5 µM (A-375 [2]),viability at 1 µM (A-375 [3]),further results
CC(=O)Nc1nc(-c2cccc(NS(=O)(=O)c3cccc(C#C[Si](C)(C)C)c3)c2)cs1,5.8%,< 1%,61.6%,–
CCCCCCC#Cc1cccc(S(=O)(=O)Nc2cccc(-c3csc(NC(C)=O)n3)c2)c1,< 1%,1.2%,56.9%,–
CCCCCCC#Cc1ccc(S(=O)(=O)Nc2cccc(-c3csc(Nc4ccccc4)n3)c2)cc1,5.8%,59.2%,87.1%,–
C#Cc1cccc(S(=O)(=O)Nc2cccc(-c3csc(NC(C)=O)n3)c2)c1,18.6%,29%,74.3%,–
CCCCC#Cc1ccc(S(=O)(=O)Nc2cccc(-c3csc(NC(C)=O)n3)c2)cc1,< 1%,9.3%,73.2%,–
CC(=O)Nc1nc(-c2cccc(NS(=O)(=O)c3ccc(C#CCCc4ccccc4)cc3)c2)cs1,< 1%,4.2%,11.5%,–
CC(=O)Nc1nc(-c2cccc(NS(=O)(=O)c3ccc(Br)cc3)c2)cs1,25.6%,19.7%,–,Activity (A-375 [3]): inactive
CC(=O)Nc1nc(-c2cccc(NS(=O)(=O)c3ccc(C#CCO)cc3)c2)cs1,48.8%,99.3%,81.3%,EC50 (A-375 [4]): 10 µM
C#Cc1ccc(S(=O)(=O)Nc2cccc(-c3csc(NC(C)=O)n3)c2)cc1,1.2%,38.3%,59.2%,–
CC(=O)Nc1nc(-c2cccc(NS(=O)(=O)c3cccc(Br)c3)c2)cs1,36%,67.4%,–,Activity (A-375 [3]): inactive
CC(=O)Nc1nc(-c2cccc(NS(=O)(=O)c3ccc(C#CC4CCCCC4)cc3)c2)cs1,1.2%,1.2%,52.3%,–
CCCCCCCCc1ccc(S(=O)(=O)Nc2cccc(-c3csc(NC(C)=O)n3)c2)cc1,< 1%,< 1%,34.8%,Activity [5]: Active; viability at 10 µM (BXPC-3): 4.9%; viability at 10 µM (MIA PaCa-2): 11.4%; viability at 10 µM [6]: 2.6%; viability at 10 µM [7]: 1.4%; viability at 10 µM (K562): 3.8%; viability at 10 µM (K-562R): 10.1%; Activity [8]: Active; Activity (A-375 [9]): Active; Activity (A-375 [10]): Active; Activity (A-375 [11]): Active; Activity [12]: Active; Activity [13]: Active; Activity (A-375 [14]): Active
CCCCCCCCC#Cc1ccc(S(=O)(=O)Nc2cccc(-c3csc(NC(C)=O)n3)c2)cc1,< 1%,8.9%,39.6%,–
CC(=O)Nc1nc(-c2cccc(NS(=O)(=O)c3cccc(C#CCO)c3)c2)cs1,45.3%,66.2%,85.4%,EC50 (A-375 [4]): 10 µM
CCCCCCC#Cc1ccc(S(=O)(=O)Nc2cccc(-c3csc(NC(C)=O)n3)c2)cc1,5.8%,12.8%,40.7%,–
CCCCCCC#Cc1ccc(S(=O)(=O)Nc2cccc(-c3csc(N)n3)c2)cc1,3.5%,< 1%,97.6%,–
CCCCCCc1ccc(S(=O)(=O)Nc2cccc(-c3csc(NC(C)=O)n3)c2)cc1,–,< 1%,49.9%,viability at 10 µM (BXPC-3): 5.9%; viability at 10 µM (MIA PaCa-2): 1.3%; viability at 10 µM [6]: 3.4%; viability at 10 µM [7]: 1.4%; viability at 10 µM (K562): 23.2%; viability at 10 µM (K-562R): 41.6%
CCCCCCC#Cc1ccc(S(=O)(=O)Nc2cccc(-c3csc(NC)n3)c2)cc1,1.2%,8.1%,36.6%,–
CC(=O)Nc1nc(-c2cccc(NS(=O)(=O)c3ccc(C#C[Si](C)(C)C)cc3)c2)cs1,< 1%,4.2%,94.3%,–
CCCCCC/C=C\c1ccc(S(=O)(=O)Nc2cccc(-c3csc(NC(C)=O)n3)c2)cc1,–,2.3%,48.8%,viability at 10 µM (BXPC-3): 2%; viability at 10 µM (MIA PaCa-2): 11.4%; viability at 10 µM [6]: < 1%; viability at 10 µM [7]: < 1%; viability at 10 µM (K562): 8.9%; viability at 10 µM (K-562R): 41.1%
